Data reported in patent publication US3983120A, “Process for the preparation of optionally substituted 1,2,3,5-tetrahydroimidazo[2,1-b]quinazolin-2-ones” (Bristol-Myers Company, priority 1974, dated 1976).

Experiments:
[1] = tested on: ADP-induced aggregation of blood platelet-rich plasma; experiment: In Vivo/In Vitro platelet aggregation (ADP) after I.P. dosing of rabbits; conditions: Oryctolagus cuniculus, ip, 2 h, dose for 50% inhibition of aggregation, one to two hours after dosing
Protocol: (§1) *In vivo/In vitro testing:
(§2) Before dosing the animals, blood samples are taken. The blood is centrifuged to obtain the blood platelet-rich plasma. Aggregation of this plasma is induced with ADP or collagen. This is the control.
(§3) The animals are then dosed with the compounds to be tested (orally or parenterally). Depending upon the route of administration, one to two hours are allowed to elapse after dosing. Blood is drawn and the same procedure employed as for the control is untreated animals.
The dose required to produce 50% inhibition of the aggregation is determined by dose response data obtained in this manner.

[2] = tested on: ADP-induced aggregation of blood platelet-rich plasma; experiment: In Vivo/In Vitro platelet aggregation (ADP) after P.O. dosing of dogs; conditions: one to two hours after dosing
Protocol: as §1, §2, §3

[3] = literature, in words; cited from earlier work

SMILES	ED50 [1]	In Vivo/In Vitro Dogs P.O. 5 mg./kg. ADP % Inhibition [2]	antihypertensive / hypotensive activity of prior art compounds [3]
CC1c2ccccc2N=C2NC(=O)CN21 (stereo not drawn) [Compound 29]	7 mg/kg	35%	
c1ccc2c(c1)CN1CCNC1=N2 [SPC2]			potent antihypertensive activity in rats, dogs, cats and rabbits
